Experimental findings from patent US20020052361A1, “Pharmaceutical compositions and method for the treatment of hypertension” (priority 1999, published 2002) are described below.

Assay type in all cases: in vivo, Sprague-Dawley rats
In data set [1] the test system is chronically hypoxic rats. Briefly: Haemodynamic tests: pulmonary artery pressure in rats kept 14 days under normoxic or hypoxic conditions. The conditions noted are these: for PAP (pulmonary artery pressure): rats, 40 mg/kg/day for 14 days via i.p. osmotic mini-pump, mean ± SD. As for the experimental part: (§1) The test substance employed was (3S,2R′)-3-[1-(2′-(carboxy-4′-phenylbutyl)cyclopentane-1-carbonylamino]-2,3,4,5-tetrahydro-2-oxo-1H-1-benzazepine-1-acetic acid, which is representative of the substances of formula I which can be used in the invention. The dose of the substance administered was 40 mg/kg per day (sufficient to suppress the pressure feedback on big endothelin).
(§2) The test animals used were Sprague-Dawley rats (260 to 310 g; n=6 to 10 per test group). In order to produce pulmonary hypertension, the animals were exposed to […] hypoxic conditions in a pressure chamber. For comparison, one control group was kept under normal air and another control group under hypoxic conditions.
(§3) The animals were treated with the active substance or a vehicle by means of osmotic mini-pumps. The osmotic mini-pumps had been implanted intraperitoneally in the animals before they were kept in a pressure chamber 24 h later for a period of two weeks. There the animals were kept at normal pressure either under hypoxic conditions (10% O2) or in normal air. After two weeks the animals were prepared for the haemodynamic tests and the measurements were carried out.
The animals were anaesthetised, then a ready-made cannula was inserted into the pulmonary artery in a conventional manner via the right jugular vein, atrium and ventricle. A catheter was inserted into the left jugular vein in order to allow intravenous administration of active substances. The left carotid artery was also fitted with a cannula for the purpose of measuring systemic blood pressure. Once the animals were conscious, pulmonary artery pressure (PAP) was recorded. The rats were then exposed to hypoxic conditions (10% O2) again for 10 minutes in a mini-chamber and the increase in pulmonary artery pressure was measured and also recorded. The effects of the test substance on PAP under normotoxic and hypoxic conditions are presented in Table 1 in comparison with the control tests. The given data are means±standard deviations and were statistically analysed by means of ANOVA.

Data set [2] deals with chronically hypoxic rats. Briefly: Measurement of the antihypertrophic effect: right and left ventricular weights. The conditions noted are these: for Rt/LtHWt (ratio of right to left ventricular weight) / RtHWt (right ventricular weight) / RtHWt/BW (ratio of right ventricular weight to body weight): rats, 40 mg/kg/day for 14 days, mean ± SD. As for the experimental part: as §1, §2, §3
After completion of the haemodynamic tests, the animals were sacrificed and their hearts were dissected out. The weights of the right and left ventricles were determined and calculated in relation to bodyweight. The effects of the test substance on the heart weights under normotoxic and hypoxic conditions are presented in Table 1 in comparison with the control tests. The given data are means±standard deviations and were statistically analysed by means of ANOVA.

Data set [3] concerns chronically hypoxic rats. Description: Effect on pulmonary artery remodelling: muscularisation of distal pulmonary vessels (histology, van Gieson staining). The procedure: as §1, §2, §3
After the rats had been sacrificed, the lungs as well as the hearts were isolated. The lungs underwent histological examination, i.e. the degree of muscularisation of the distal pulmonary vessels was determined after “van Gieson” staining, by microscopy at 400× magnification. The effects of the test substance on pulmonary artery remodelling (i.e. on muscularisation of the distal pulmonary vessels) during two weeks' hypoxia are presented in Table 2 in comparison with the hypoxic control tests. The given data are means±standard deviations and were statistically analysed by means of ANOVA.

In data set [4] the test system is chronically hypoxic rats. Briefly: Haemodynamic tests: systemic blood pressure via carotid artery cannula. The conditions noted are these: 40 mg/kg per day, result in words. The procedure:
as §1, §2
The animals were treated with the active substance or a vehicle by means of osmotic mini-pumps. […]
The animals were anaesthetised, then a ready-made cannula was inserted into the pulmonary artery in a conventional manner via the right jugular vein, atrium and ventricle. […] Once the animals were conscious, pulmonary artery pressure (PAP) was recorded. The rats were then exposed to hypoxic conditions (10% O2) again for 10 minutes in a mini-chamber and the increase in pulmonary artery pressure was measured and also recorded. […] The given data are means±standard deviations and were statistically analysed by means of ANOVA.

[5] abbreviates: hypoxic rats, 40 mg/kg per day, result in words.
Where [6] appears, read: rats, 14 days' hypoxia, 40 mg/kg/day for 14 days, mean ± SD, n = 8.

Turning to `O=C(O)CN1C(=O)[C@@H](NC(=O)C2(C[C@@H](CCc3ccccc3)C(=O)O)CCCC2)CCc2ccccc21` [Test substance], the “Effect on pulmonary artery pressure (PAP) in comparison with hypoxic control animals” value in the data set on chronically hypoxic rats [1] (setting [5]) is given as “statistically significant decrease”. Also, the “PAP (pulmonary artery pressure)” value with chronically hypoxic rats [1] (14-day hypoxia (10% O2), n=9) was 33.2 ± 1.2 mmHg. The “PAP (pulmonary artery pressure)” value with chronically hypoxic rats [1] (14-day normoxia, n = 8) was 22.2 ± 1 mmHg. Moreover, in the data set on chronically hypoxic rats [2] (setting [5]), the “Effect on ratio between right and left ventricular weights” value is listed as “tendency towards a reduction”; the “Effect on ratio between right heart weight and bodyweight” value is given as “tendency towards a reduction”; the “Effect on right heart weight (antihypertrophic effect) in comparison with hypoxic control tests” value is on record as “statistically significant reduction”. Further, in the data set with chronically hypoxic rats [2] (14-day hypoxia (10% O2), n=9), the “Rt/LtHWt (ratio of right to left ventricular weight)” value came to 0.40 ± 0.02 mg/mg, the “RtHWt (right ventricular weight)” value was 242 ± 6.4 mg and the “RtHWt/BW (ratio of right ventricular weight to body weight)” value was 0.87 ± 0.03 mg/g. Also, in the data set with chronically hypoxic rats [2] (14-day normoxia, n = 8), the “Rt/LtHWt (ratio of right to left ventricular weight)” value is reported as 0.25 ± 0.01 mg/mg, the “RtHWt (right ventricular weight)” value is on record as 171 ± 10 mg and the “RtHWt/BW (ratio of right ventricular weight to body weight)” value stood at 0.56 ± 0.03 mg/g. In the data set with chronically hypoxic rats [3] (setting [5]), the “Effect on muscularisation of the distal pulmonary vessels” value was “statistically significantly reduced”. Further, in the data set with chronically hypoxic rats [3] (setting [6]), the “Muscularised distal pulmonary vessels” value was 52 ± 5 %, the “Non-muscularised distal pulmonary vessels” value came to 9 ± 3% and the “Partly muscularised distal pulmonary vessels” value is given as 39 ± 4 %. In the data set on chronically hypoxic rats [4], the “Effect on normal systemic blood pressure (hypotensive properties)” value is reported as “unaffected”.
